Measurements as given in patent US11339163B2, “BRaf inhibitors and use thereof for treatment of cutaneous reactions” (Lutris Pharma Ltd., priority 2017, dated 2022).
In brackets after ≈: the same amount, converted by molar mass. Where two headings read alike, the source gives them in different places.

Legend:
[1] = test system: BALB/c-3T3 mouse fibroblasts; assay: 3T3 neutral red uptake phototoxicity assay; format: cell-based; settings: for IC50: Mus musculus, BALB/c3T3, light or radiation study
Description: Therefore, the compounds of the present disclosure were screened for phototoxicity using the 3T3 natural red uptake assay.
In brief, BALB/c-3T3 mouse fibroblasts (originally obtained from ATCC) were seeded in 96-well plates at 12,000 cells per well, and grown for 24 hr. Test compounds and the positive control (chlorpromazine) were solubilized and serially diluted in DMSO. The negative control (histidine) was solubilized and diluted in HBSS. A dilution for all test articles was then made into HBSS at the final testing concentrations. At the start of the assay, the growth medium was removed from the plates and replaced with test agent dilution. Six replicates were used for each concentration. Cells were incubated in the dark with test article for 1 h, exposed to UVA light (2.5 J/cm2 over 18 min) and incubated 24 hrs. in the dark. A parallel non-irradiated plate was treated similarly, except it was stored in the dark, rather than illuminated.
For Neutral Red staining, medium was removed and fresh medium containing 25 μg/mL of Neutral Red (Sigma) was added. After three hours incubation, the cells were washed with PBS, and the cellular dye was solubilized with 1% acetic acid in 50% ethanol. Cellular Neutral Red was measured by its absorbance at 540 nm.
Data analysis: An IC50 (concentration that causes 50% reduction in viability) was calculated for each condition by linear interpolation.
A Photo-Irritation Factor (PIF) was calculated: PIF=IC50(−Irr)/IC50(+Irr)
PIF>5 indicates phototoxicity; 2<PIF<5 indicates probable phototoxicity; PIF<2 indicates no phototoxicity
In addition, the Mean Photo Effect (MPE) was calculated by comparison of the complete concentration-response curves. MPE is a weighted average of the difference in response of equivalent doses normalized by the shift in IC50.
MPE>0.15 indicates phototoxicity; 0.1<MPE<0.15 indicates probable phototoxicity; MPE<0.1 indicates no phototoxicity.

[2] = test system: ERK phosphorylation in HEKa cells; assay: phospho-ERK in HEKa cells following EGFR inhibitors (Western blot); format: cell-based, human
Description: Human normal keratinocyte cells HEKa were purchased from Gibco Rhenium and seeded in 10 cm dishes (300,000 cells/dish) and incubated overnight at 37° C., 5% CO2. Next morning, the medium was replaced to a starvation medium for 2 hours and then the cells were treated for 2 additional hours with the test compounds. Post incubation, the cells were lyzed with RIPA and the protein extracts were analyzed by western blot for Phospho-ERK and total ERK. Untreated cells and 0.1% DMSO treated cells were used as negative control. HKGS growth factors was used as a positive control.
Western blot: 7.5 μg of total extract was loaded on 10% acrylamide gel. Following transfer, the membranes were blocked with TBST/5% skimmed milk and then incubated with Mouse anti Phospho-ERK (1:1000 in TBST 5% BSA, ON at 4° C.) and goat anti Mouse HRP (1:10,000 in TBST 5% BSA, 1-hour RT). The membranes were exposed using SuperSignal West Pico Chemiluminescent Substrate.
The HRP was then inactivated by incubating the membranes for 1 hour with 0.5% sodium azide Following washes and ECL exposure in order to ensure absence of signal, the membranes were re-blocked for 15 min with TBST/5% skimmed milk and then incubated with Rabbit anti total ERK2 (1:500 in TBST 5% BSA, ON at 4° C.), goat anti Rabbit HRP (1:5,000 in TBST 5% BSA, 1-hour RT) and finally exposed using the SuperSignal West Pico Chemiluminescent Substrate. The films were scanned and the signal were quantified using ImageJ software. The results were calculated as Phospho-ERK/total ERK.
HKGS was used as a positive control.

[3] = MPE>0.15 phototoxicity, 0.1-0.15 probable, <0.1 none
[4] = non-irradiated, Neutral Red, read-out: Cell Viability IC50 Minus UVA
[5] = PIF=IC50(−Irr)/IC50(+Irr), >5 phototoxicity, 2-5 probable, <2 none

Structure (SMILES) | Comment (photo-toxicity assessment) [1] | Mean MPE [1, 3] | IC50 [1, 4] | Mean PIF [1, 5] | other results
Cc1ccc2c(Nc3ccc(Cl)cc3)nccc2c1Nc1ncccc1-c1ncnc2[nH]cnc12 [Compound C-1] | Non | – | – | – | phototoxicity (3T3 NRU), stated in words [1]: did not show phototoxicity; IC50 ([1]; 0.3 h, read-out: Cell Viability IC50 Plus UVA): 18.1 µg/mL; IC50 ([1]; read-out: Cell Viability IC50 Minus UVA): 14 µg/mL (≈ 29.2 µM); Mean MPE ([1]; mouse, 24 h): −0.011; Mean PIF ([1]; mouse, 24 h): 0.8
CN(C)CCCN1c2ccccc2Sc2ccc(Cl)cc21 [Chloropromazine, chlorpromazine] | Phototoxic | 0.477 | 31 µg/mL (≈ 97.2 µM) | 31.6 | –
N[C@@H](Cc1c[nH]cn1)C(=O)O [Histidine, histidine] | – | 0.036 | > 1000 µg/mL | 1 | IC50 ([1]; 0.3 h, UVA 2.5 J/cm2 over 18 min, Neutral Red, read-out: Cell Viability IC50 Plus UVA): > 1000 µg/mL
C#Cc1cccc(Nc2ncnc3cc(OCCOC)c(OCCOC)cc23)c1 [Erlotinib, erlotinib, reference compound] | – | – | – | – | phospho ERK compared to HKGS treated cells [2]: decreased
